Measured values taken from patent publication US8574834B2, “Method for predicting the response to a therapy” (Index Pharmaceuticals AB, priority 2007, dated 2013).

Test system: Tsp1 gene
Assay: Tsp1 gene expression in PBMC after 48 hrs stimulation, real-time PCR
Type: cell-based, human
Settings: 10^-6 M Dex, normalised to basal expression
Description: FIG. 2 depicts the average value of expression level of Tsp1 gene in PBMC in response to 48 hrs stimulation with IDX0150 alone, Dex alone, or IDX0150 and Dex combination as quantified by real-time PCR. The experimental conditions and data handling were as described in FIG. 1 and Example 1.
FIG. 5 depicts the average value of expression level of Tsp1 gene in PBMC in response to 48 hrs stimulation with IDX0150 alone, Dex alone, or IDX0150 and Dex combination as quantified by real-time PCR. The experimental conditions and data handling were as described in FIG. 4 and Example 1.
Peripheral blood mononuclear cells (PMBC) were isolated from blood samples of seven steroid resistant asthma or ulcerative colitis patients and ten healthy volunteers by density gradient centrifugation using Ficoll-Paque Plus (Pharmacia Biotech), washed three times in buffered saline solution (PBS), and resuspended in complete RPMI 1640 (Sigma/Gibco) containing 15% heat inactivated fetal bovine serum (FCS) (Gibco, Life Technologies), 100 U/ml penicillin, 100 μg/ml streptomycin (Life Technologies), 2 mM L-glutamine (Sigma), gentamycin 25 ug/ml (Sigma) and 5 mM Hepes (Gibco, Life Technologies). Cells were counted using 0.4% Trypan blue solution (Sigma Aldrich). On average the yield of PBMC was in range of 60-120×10^6 cells per donor sample. […]

## C[C@@H]1C[C@H]2[C@@H]3CCC4=CC(=O)C=C[C@]4(C)[C@@]3(F)[C@@H](O)C[C@]2(C)[C@@]1(O)C(=O)CO [dexamethasone]
  induction of Tsp1: 3-5 fold
